From patent publication US20250230165A1, “HETEROCYCLIC COMPOUNDS FOR USE IN THE TREATMENT OF CANCER” (ARTIOS PHARMA LIMITED, priority 2021, published 2025) come the findings set out here.

The target of this assay is T1, Human Polθ polymerase domain (aa1820-2590) (Homo sapiens, UniProt O75417).
T1 construct: Human Polθ polymerase domain (aa1820-2590) was expressed in E. coli; made in house; host or cells: E. coli
T1 sequence (O75417 1820-2590): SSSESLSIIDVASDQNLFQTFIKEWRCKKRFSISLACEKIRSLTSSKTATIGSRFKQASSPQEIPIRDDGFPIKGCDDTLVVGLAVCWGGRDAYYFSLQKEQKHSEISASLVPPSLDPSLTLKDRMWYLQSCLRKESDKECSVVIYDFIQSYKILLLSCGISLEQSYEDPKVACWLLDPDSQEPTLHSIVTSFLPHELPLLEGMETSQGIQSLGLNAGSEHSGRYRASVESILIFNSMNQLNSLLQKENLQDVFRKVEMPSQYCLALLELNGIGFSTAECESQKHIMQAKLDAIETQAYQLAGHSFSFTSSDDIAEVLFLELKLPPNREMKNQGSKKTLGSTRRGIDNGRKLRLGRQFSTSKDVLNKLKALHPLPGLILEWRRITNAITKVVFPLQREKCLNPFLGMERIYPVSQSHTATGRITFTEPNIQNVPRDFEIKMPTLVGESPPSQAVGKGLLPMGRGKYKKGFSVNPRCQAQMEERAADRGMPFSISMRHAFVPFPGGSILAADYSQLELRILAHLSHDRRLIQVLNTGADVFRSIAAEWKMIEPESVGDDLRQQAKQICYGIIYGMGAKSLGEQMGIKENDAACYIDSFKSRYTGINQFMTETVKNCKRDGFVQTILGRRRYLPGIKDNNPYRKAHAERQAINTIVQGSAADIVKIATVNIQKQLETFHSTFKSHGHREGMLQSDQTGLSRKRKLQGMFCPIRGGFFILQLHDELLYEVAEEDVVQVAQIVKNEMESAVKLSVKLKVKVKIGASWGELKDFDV
Nature of the assay: Polθ Polymerase Domain Kinact/KI Assay (PicoGreen). Format: biochemical. The note with it: 0.8 nM Polθ, 100 nM DNA substrate, kobs vs [I] fit for 2-step covalent inhibitor. An outline of the steps: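 Covalent inhibitors were tested against E. coli-expressed enzyme (0.8 nM final) with 100 nM annealed DNA substrate and […] in Tris pH 7.5 buffer, 1% DMSO. Reactions were EDTA-quenched over a 0–60 min time course and product DNA detected by PicoGreen fluorescence.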
`C=C(CN(C)C)C(=O)N1CC(C(F)CCCN2C[C@H]3CC(=O)N(c4cc(C(F)(F)F)cc(C)n4)[C@@H]3C(=O)N(C)c3cccc(Cl)c32)C1` (stereo partly drawn) [Example 300, (3aR,11aS)-6-chloro-5-(4-(1-(2-((dimethylamino)methyl)acryloyl)azetidin-3-yl)-4-fluorobutyl)-10-methyl-1-(6-methyl-4-(trifluoromethyl)pyridin-2-yl)-1,3a,4,5,10,11a-hexahydro-2H-benzo[b]pyrrolo[2,3-f][1,4]diazocine-2,11(3H)-dione] registered a Kinact/Kl of 3.93e+06 M⁻¹ s⁻¹. The figure for `C=CC(=O)N1CC(N2CCCC(CN3C[C@H]4CC(=O)N(c5cc(C(F)(F)F)cc(C)n5)[C@@H]4C(=O)N(C)c4cccc(F)c43)C2)C1` (single isomer, unassigned) [Example 225a] is 320000 M⁻¹ s⁻¹; for `C=CC(=O)N1CC2(CN(CCN3C[C@H]4CC(=O)N(c5cc(C(F)(F)F)cc(C)n5)[C@@H]4C(=O)N(C)c4cccc(F)c43)CCO2)C1` [Example 4, (3aR,11aS)-5-(2-(2-acryloyl-5-oxa-2,8-diazaspiro[3.5]nonan-8-yl)ethyl)-6-fluoro-10-methyl-1-(6-methyl-4-(trifluoromethyl)pyridin-2-yl)-1,3a,4,5,10,11a-hexahydro-2H-benzo[b]pyrrolo[2,3-f][1,4]diazocine-2,11(3H)-dione] it is 750000 M⁻¹ s⁻¹; for `C=CC(=O)N1Cc2ccc(CN3C[C@H]4CC(=O)N(c5cc(C(F)(F)F)cc(C)n5)[C@@H]4C(=O)N(C)c4cccc(Cl)c43)nc2[C@@H]1CC#N` (racemic) [Example 289b, 2-((S/R)-6-acryloyl-2-(((3aR,11aS)-6-chloro-10-methyl-1-(6-methyl-4-(trifluoromethyl)pyridin-2-yl)-2,11-dioxo-1,2,3,3a,4,10,11,11a-octahydro-5H-benzo[b]pyrrolo[2,3-f][1,4]diazocin-5-yl)methyl)-6,7-dihydro-5H-pyrrolo[3,4-b]pyridin-7-yl)acetonitrile] it is 1.24e+06 M⁻¹ s⁻¹. In the case of `Cc1cc(C(F)(F)F)cc(N2C(=O)C[C@@H]3CN(CCOCC4CN(C(=O)C5=CCCN(C)C5)C4)c4c(C)cccc4N(C)C(=O)[C@H]32)n1` [Example 197, (3aR,11aS)-6,10-dimethyl-5-(2-((1-(1-methyl-1,2,5,6-tetrahydropyridine-3-carbonyl)azeti-din-3-yl)methoxy)-ethyl)-1-(6-methyl-4-(trifluoromethyl)-pyridin-2-yl)-1,3a, 4,5,10,11a-hexa-hydro-2H-benzo [b]pyrrolo[2,3-f] [1,4]diazocine-2,11(3H)-dione] it was 1.67e+06 M⁻¹ s⁻¹; in that of `Cc1cc(C(F)(F)F)cc(N2C(=O)C[C@@H]3CN(Cc4ccc(NC(=O)C5=CCCN(C)C5)cc4)c4c(C)cccc4N(C)C(=O)[C@H]32)n1` [Example 211, N-(4-(((3aR, 11aS)-6,10-dimethyl-1-(6-methyl-4-(trifluoromethyl)pyridin-2-yl)-2,11-dioxo-1,2,3,3a,4,10,11,11a-octahydro-5H-benzo[b]pyrrolo [2,3-f][1,4]diazocin-5-yl)methyl)phenyl)-1-methyl-1,2,5,6-tetrahydropyridine-3-carboxamide], 1.57e+06 M⁻¹ s⁻¹. The figure for `C=CC(=O)N1CCC[C@H]1c1noc(CN2C[C@H]3CC(=O)N(c4cc(C(F)(F)F)cc(C)n4)[C@@H]3C(=O)N(C)c3cccc(C)c32)n1` [Example 269, (3aR,11aS)-5-((3-((S)-1-acryloylpyrrolidin-2-yl)-1,2,4-oxadiazol-5-yl)methyl)-6,10-dimethyl-1-(6-methyl-4-(trifluoromethyl)pyridin-2-yl)-1,3a,4,5,10,11a-hexahydro-2H-benzo[b]pyrrolo[2,3-f][1,4]diazocine-2,11(3H)-dione] is 970000 M⁻¹ s⁻¹; for `C=CC(=O)N1CC(N2CCN(C(=O)CN3C[C@H]4CC(=O)N(c5cc(C(F)(F)F)cc(C)n5)[C@@H]4C(=O)N(C)c4cccc(F)c43)CC2)C1` [Example 51, (3aR,11aS)-5-(2-(4-(1-acryloylazetidin-3-yl)piperazin-1-yl)-2-oxoethyl)-6-fluoro-10-methyl-1-(6-methyl-4-(trifluoromethyl)pyridin-2-yl)-1,3a,4,5,10,11a-hexahydro-2H-benzo[b]pyrrolo[2,3-f][1,4]diazocine-2,11(3H)-dione] it is 210000 M⁻¹ s⁻¹. `C=CC(=O)N1CC2(CN(CCN3C[C@H]4CC(=O)N(c5cc(C(F)(F)F)cc(C)n5)[C@@H]4C(=O)N(C)c4cccc(F)c43)CCN2C(C)=O)C1` [Example 36, (3aR,11aS)-5-(2-(5-acetyl-2-acryloyl-2,5,8-triazaspiro[3.5]nonan-8-yl)ethyl)-6-fluoro-10-methyl-1-(6-methyl-4-(trifluoromethyl)pyridin-2-yl)-1,3a,4,5,10,11a-hexahydro-2H-benzo[b]pyrrolo[2,3-f][1,4]diazocine-2,11(3H)-dione]: the Kinact/Kl stood at 1.47e+06 M⁻¹ s⁻¹.

`C=CC(=O)N1CC2(CN(CCN3C[C@H]4CC(=O)N(c5cc(C(F)(F)F)cc(C)n5)[C@@H]4C(=O)N(C)c4cccc(F)c43)CCN2CC)C1` [Example 35, (3aR,11aS)-5-(2-(2-acryloyl-5-ethyl-2,5,8-triazaspiro[3.5]nonan-8-yl)ethyl)-6-fluoro-10-methyl-1-(6-methyl-4-(trifluoromethyl)pyridin-2-yl)-1,3a,4,5,10,11a-hexahydro-2H-benzo[b]pyrrolo[2,3-f][1,4]diazocine-2,11(3H)-dione] yielded a Kinact/Kl of 870000 M⁻¹ s⁻¹.

Consider `C=CC(=O)N1Cc2nc(CN3C[C@H]4CC(=O)N(c5cc(C(F)(F)F)cc(C)n5)[C@@H]4C(=O)N(C)c4cccc(C)c43)n(C)c2C1` [Example 241, (3aR,11aS)-5-((5-acryloyl-1-methyl-1,4,5,6-tetrahydropyrrolo[3,4-d]imidazol-2-yl)methyl)-6,10-dimethyl-1-(6-methyl-4-(trifluoromethyl)pyridin-2-yl)-1,3a,4,5,10,11a-hexahydro-2H-benzo[b]pyrrolo[2,3-f][1,4]diazocine-2,11(3H)-dione], for which the Kinact/Kl worked out at 1.28e+06 M⁻¹ s⁻¹. The compound `C=C(CN(C)C)C(=O)NCCOCCN1C[C@H]2CC(=O)N(c3cc(C(F)(F)F)cc(C)n3)[C@@H]2C(=O)N(C)c2cccc(C)c21` [Example 85, N-(2-(2-((3aR,11aS)-6,10-dimethyl-1-(6-methyl-4-(trifluoromethyl)pyridin-2-yl)-2,11-dioxo-1,2,3,3a,4,10,11,11a-octahydro-5H-benzo[b]pyrrolo[2,3-f][1,4]diazocin-5-yl)ethoxy)ethyl)-2-((dimethylamino)methyl)acrylamide] yielded a Kinact/Kl of 1.82e+06 M⁻¹ s⁻¹. The figure for `C=C(CN(C)C)C(=O)N1CC2(CC(CN3C[C@H]4CC(=O)N(c5cc(C(F)(F)F)cc(C)n5)[C@@H]4C(=O)N(C)c4cccc(C)c43)C2)C1` [Example 328, (3aR,11aS)-5-((2-(2-((dimethylamino)-methyl)acryloyl)-2-azaspiro[3.3]heptan-6-yl)methyl)-6,10-dimethyl-1-(6-meth-yl-4-(trifluorometh-yl)pyridin-2-yl)-1,3a, 4,5,10,11a-hexa-hydro-2H-benzo[b] pyrrolo[2,3-f][1,4] diazocine-2,11(3H)-dione] is 4.11e+06 M⁻¹ s⁻¹.
